Experimental findings from US7071231B2, “Naphthalene ureas as glucose uptake enhancers” (Telik, Inc., priority 1999, dated 2006) are described below.

Read-outs that look alike come from different tables or passages of the source.

The test system of this test is 3T3 L1 fibroblasts. Put plainly: Glucose transport activity assay (14C-2-deoxy-D-glucose uptake). Particulars: EC (effective concentration) for increase in glucose transport, 14C-2-deoxy-D-glucose, 3T3 L1 cells, read-out: Concentration (μM) to reach >150% activity of vehicle control. In kind it is cell-based. The protocol: Glucose Transport Activity Assay.
Stimulation of the insulin receptor leads to the transport of glucose from the blood into cells, thus modulating blood glucose levels. 3T3 L1 fibroblasts (ATCC) were grown in Dulbecco's modified Eagle's medium (DMEM) with 10% fetal bovine serum (FBS). The cells were plated at a density of 3×10^4 cells/well in 24-well plates. Two days after confluence was reached, the cells were treated for 3 days with 0.5 mM isobutylmethylxanthine (IBMX), 1 μM dexamethasone, and 1.7 μM insulin. The cells were then transferred to DMEM with 10% FBS and supplemented with 1.7μM insulin for 2 more days. The cells were maintained in DMEM with 10% FBS for an additional 4 days. Finally the cells were serum-starved overnight in 0.1% bovine serum albumin (BSA) in DMEM.
The following day, the medium was replaced with 150 mM NaCl, 1.7 mM KCl, 0.9 mM CaCl2, K2HPO4 (pH 7.4) to which were added either the experimental compounds or their vehicle (DMSO). Insulin or its vehicle (0.01% BSA) was diluted in the assay buffer (containing test compound or vehicle, respectively) to final concentration of […]. After incubation for 30 min at 37° C., 5 μCi/ml ^14C-2-deoxy-D-glucose was added, and the incubation was continued for additional 30 min at 37° C. The cells were then washed 3 times with ice-cold PBS/20 mM glucose and lysed in 250 μl of lysis buffer (50 mM HEPES pH 7.6, 1% Triton X-100) for 30 min at room temperature. Radioactivity in the lysate was quantified by scintillation counting.
Once ^14C-2-deoxy-D-glucose is transported into the cell, it is not released. Glucose transport is, therefore, proportional to the amount of radioactivity in the lysate. The concentration of compound necessary to produce an increase in glucose transport to greater than 150% of the vehicle control (generally representing the sum of the standard deviation of the vehicle control plus the largest standard deviation of a test sample) was recorded as the EC (effective concentration). Shown in FIG. 3 is glucose uptake by cells at various concentrations when treated with Compound 13 and Compound 15.

Consider “methyl 2-chloro-5-[({7-[({[7-({[4-chloro-3-(methoxycarbonyl)phenyl]amino}sulfonyl)(2-naphthyl)]amino}iminomethyl)amino](2-naphthyl)}sulfonyl)amino]benzoate [Compound 159]”, for which the EC (150% of vehicle control) is reported as 3.2 µM.

With `O=C(Nc1ccc2ccc(S(=O)(=O)O)cc2c1)Nc1ccc2ccc(S(=O)(=O)Nc3ccc(S(=O)(=O)O)cc3)cc2c1` [Compound 20, 7-{[(7-{[(4-sulfophenyl)amino]sulfonyl}-2-naphthyl)amino]carbonylamino}naphthalene-2-sulfonic acid], under “Mus musculus”, the EC (150% of vehicle control) is 3.2 µM.

For the compound `COC(=O)c1ccc(OC)c(NS(=O)(=O)c2ccc3ccc(NC(=O)Nc4ccc5ccc(S(=O)(=O)Nc6cc(C(=O)OC)ccc6OC)cc5c4)cc3c2)c1` [Compound 65, methyl 4-methoxy-3-({[7-({[7-({[2-methoxy-5-(methoxycarbonyl)phenyl]amino}sulfonyl)(2-naphthyl)]amino}carbonylamino)(2-naphthyl)]sulfonyl}amino)benzoate], the EC (150% of vehicle control) (Mus musculus) was greater than 32 µM. Regarding `O=C(Nc1ccc2ccc(S(=O)(=O)Nc3ccc(C(=O)O)c(O)c3)cc2c1)Nc1ccc2ccc(S(=O)(=O)Nc3ccc(C(=O)O)c(O)c3)cc2c1` [Compound 35, 4-{[(7-{[N-(7-{[(4-carboxy-3-hydroxyphenyl)amino]sulfonyl}(2-naphthyl))carbamoyl]amino}(2-naphthyl))sulfonyl]amino}-2-hydroxybenzoic acid], for the setting “Mus musculus”, the EC (150% of vehicle control) stood at 32 µM.

As to `O=C(O)Cc1ccc(NS(=O)(=O)c2ccc3cc(NC(=O)Nc4ccc5cc(S(=O)(=O)Nc6ccc(CC(=O)O)cc6)ccc5c4)ccc3c2)cc1` [Compound 179, 2-[4-({[6-({N-[6-({[4-(carboxymethyl)phenyl]amino}sulfonyl)-2-naphthyl]carbamoyl}amino)-2-naphthyl]sulfonyl}amino)phenyl]acetic acid], the EC (150% of vehicle control) (Mus musculus) was greater than 32 µM. Regarding `O=C(Nc1ccc2ccc(S(=O)(=O)Nc3cccc(C(=O)O)c3O)cc2c1)Nc1ccc2ccc(S(=O)(=O)Nc3cccc(C(=O)O)c3O)cc2c1` [Compound 31, 3-{[(7-{[N-(7-{[(3-carboxy-2-hydroxyphenyl)amino]sulfonyl}(2-naphthyl))carbamoyl]amino}(2-naphthyl))sulfonyl]amino}-2-hydroxybenzoic acid], the EC (150% of vehicle control) (Mus musculus) is 3.2 µM. Same read-out and setting: the value for `COC(=O)[C@H](Cc1ccc(O)cc1)NS(=O)(=O)c1ccc2ccc(NC(=O)Nc3ccc4ccc(S(=O)(=O)N[C@@H](Cc5ccc(O)cc5)C(=O)OC)cc4c3)cc2c1` [Compound 74, methyl (2S)-2-({[7-({N-[7-({[(1S)-2-(4-hydroxyphenyl)-1-(methoxycarbonyl)ethyl]amino}sulfonyl)(2-naphthyl)]carbamoyl}amino)(2-naphthyl)]sulfonyl}amino)-3-(4-hydroxyphenyl)propanoate] was 3.2 µM; that for `O=C(Nc1ccc2ccc(C(=O)Nc3cccc(C(=O)O)c3)cc2c1)Nc1ccc2ccc(C(=O)Nc3cccc(C(=O)O)c3)cc2c1` [Compound 116, 3-({7-[({7-[N-(3-carboxyphenyl)carbamoyl]-2-naphthyl}amino)carbonylamino]-2-naphthyl}carbonylamino)benzoic acid] was greater than 32 µM. Still for that read-out and setting: next, `O=C(Nc1ccc2cc(S(=O)(=O)Nc3ccc(C(=O)O)cc3)ccc2c1)Nc1ccc2cc(S(=O)(=O)Nc3ccc(C(=O)O)cc3)ccc2c1` [Compound 173, 4-{[(6-{[(6-{[(4-carboxyphenyl)amino]sulfonyl}-2-naphthyl)amino]carbonylamino}-2-naphthyl)sulfonyl]amino}benzoic acid]: 3.2 µM; `COC(=O)c1cc(NS(=O)(=O)c2ccc3ccc(/N=C(/Nc4ccc5ccc(S(=O)(=O)Nc6ccc(Cl)c(C(=O)OC)c6)cc5c4)SC)cc3c2)ccc1Cl` [Compound 158, methyl 5-({[7-((1Z)-1-aza-2-{[7-({[4-chloro-3-(methoxycarbonyl)phenyl]amino}sulfonyl)(2-naphthyl)]amino}-2-methylthiovinyl)(2-naphthyl)]sulfonyl}amino)-2-chlorobenzoate]: greater than 32 µM. For the compound `COc1ccc(NS(=O)(=O)c2ccc3ccc(NC(=O)Nc4ccc5ccc(S(=O)(=O)Nc6ccc(OC)c(C(=O)O)c6)cc5c4)cc3c2)cc1C(=O)O` [Compound 62, 5-{[(7-{[N-(7-{[(3-carboxy-4-methoxyphenyl)amino]sulfonyl}(2-naphthyl))carbamoyl]amino}(2-naphthyl))sulfonyl]amino}-2-methoxybenzoic acid], the EC (150% of vehicle control) (Mus musculus) was 10 µM. The same measure, in the same setting: next, `O=C(Nc1ccc2c(O)cc(S(=O)(=O)Nc3cccc(C(F)(F)F)c3)cc2c1)Nc1ccc2c(O)cc(S(=O)(=O)Nc3cccc(C(F)(F)F)c3)cc2c1` [Compound 88, N-[5-hydroxy-7-({[3-(trifluoromethyl)phenyl]amino}sulfonyl)(2-naphthyl)]{[5-hydroxy-7-({[3-(trifluoromethyl)phenyl]amino}sulfonyl)(2-naphthyl)]amino}carboxamide]: greater than 32 µM; `O=C(Nc1ccc2c(O)cc(S(=O)(=O)Nc3ccc(-c4nnn[nH]4)cc3)cc2c1)Nc1ccc2c(O)cc(S(=O)(=O)Nc3ccc(-c4nnn[nH]4)cc3)cc2c1` [Compound 69, N-(5-hydroxy-7-{[(4-(1H-1,2,3,4-tetraazol-5-yl)phenyl)amino]sulfonyl}(2-naphthyl))[(5-hydroxy-7-{[(4-(1H-1,2,3,4-tetraazol-5-yl)phenyl)amino]sulfonyl}(2-naphthyl))amino]carboxamide]: greater than 32 µM. Regarding `O=C(Nc1ccc2ccc(S(=O)(=O)Nc3ccccc3C(=O)O)cc2c1)Nc1ccc2ccc(S(=O)(=O)Nc3ccccc3C(=O)O)cc2c1` [Compound 45, 2-{[(7-{[N-(7-{[(2-carboxyphenyl)amino]sulfonyl}-2-naphthyl)carbamoyl]amino}-2-naphthyl)sulfonyl]amino}benzoic acid], the EC (150% of vehicle control) (Mus musculus) worked out at 3.2 µM. For the compound `O=C(Nc1ccc2ccc(S(=O)(=O)Nc3ccc(O)c(C(=O)O)c3)cc2c1)Nc1ccc2ccc(S(=O)(=O)Nc3ccc(O)c(C(=O)O)c3)cc2c1` [Compound 33, 5-{[(7-{[N-(7-{[(3-carboxy-4-hydroxyphenyl)amino]sulfonyl}(2-naphthyl))carbamoyl]amino}(2-naphthyl))sulfonyl]amino}-2-hydroxybenzoic acid], for the setting “Mus musculus”, the EC (150% of vehicle control) turned out to be 3.2 µM.

Turning to `O=C(Nc1ccc2c(O)cc(S(=O)(=O)Nc3cc(C(=O)O)cc(C(=O)O)c3)cc2c1)Nc1ccc2c(O)cc(S(=O)(=O)Nc3cc(C(=O)O)cc(C(=O)O)c3)cc2c1` [Compound 51, 5-{[(7-{[N-(7-{[(3,5-dicarboxyphenyl)amino]sulfonyl}-5-hydroxy(2-naphthyl))carbamoyl]amino}-4-hydroxy-2-naphthyl)sulfonyl]amino}benzene-1,3-dicarboxylic acid], under “Mus musculus”, the EC (150% of vehicle control) is greater than 32 µM. Same read-out and setting: the value for `O=C(Nc1ccc2ccc(S(=O)(=O)N[C@@H](Cc3ccc(O)cc3)C(=O)O)cc2c1)Nc1ccc2ccc(S(=O)(=O)N[C@@H](Cc3ccc(O)cc3)C(=O)O)cc2c1` [Compound 75, (2S)-2-({[7-({N-[7-({[(1S)-1-carboxy-2-(4-hydroxyphenyl)ethyl]amino}sulfonyl)(2-naphthyl)]carbamoyl}amino)(2-naphthyl)]sulfonyl}amino)-3-(4-hydroxyphenyl)propanoic acid] was 3.2 µM. For `O=C(Nc1ccc2ccc(S(=O)(=O)O)cc2c1)Nc1ccc2ccc(S(=O)(=O)Nc3ccc([N+](=O)[O-])c(C(=O)O)c3)cc2c1` [Compound 37, 2-nitro-5-{[(7-{[N-(7-sulfo(2-naphthyl))carbamoyl]amino}(2-naphthyl))sulfonyl]amino}benzoic acid], under “Mus musculus”, the EC (150% of vehicle control) amounted to 3.2 µM.

With `C=CCN=C(Nc1ccc2ccc(NS(=O)(=O)c3ccc(Cl)c(C(=O)O)c3)cc2c1)Nc1ccc2ccc(NS(=O)(=O)c3ccc(Cl)c(C(=O)O)c3)cc2c1` [Compound 168, 5-({[7-({(1E)-2-aza-1-[(7-{[(3-carboxy-4-chlorophenyl)sulfonyl]amino}(2-naphthyl))amino]penta-1,4-dienyl}amino)(2-naphthyl)]amino}sulfonyl)-2-chlorobenzoic acid], the EC (150% of vehicle control) is reported as greater than 32 µM. Turning to `O=C(Nc1ccc2ccc(S(=O)(=O)O)cc2c1)Nc1ccc2ccc(S(=O)(=O)Nc3ccc(Cl)c(S(=O)(=O)O)c3)cc2c1` [Compound 90, 7-{[(7-{[(4-chloro-3-sulfophenyl)amino]sulfonyl}-2-naphthyl)amino]carbonylamino}naphthalene-2-sulfonic acid], for the setting “Mus musculus”, the EC (150% of vehicle control) amounted to 3.2 µM.
